Counter-ions that a name gives are not always drawn. Like-named read-outs stand apart in the source and are kept apart here.
System: Human prostate PC3 tumor cells
Assay: aFGF/bFGF-induced resistance and reversal by suramin, sulforhodamine B assay
Format: cell-based
Description: The experimental conditions are described briefly below. […] Cell number was measured using the sulforhodamine B assay which measures the total protein concentration. […] The FGF-induced resistance was dependent on the FGF concentrations, with a higher resistance at higher FGF concentrations.

[1] = Homo sapiens, read-out: IC50, Control (drug treatment only, without FGF treatment), No suramin, drug 96 hours
[2] = Homo sapiens, read-out: IC50, aFGF 0.3 ng/ml + bFGF 1 ng/ml, No suramin, FGF pretreatment 96 hours, drug 96 hours
[3] = Homo sapiens, read-out: IC50, aFGF 1 ng/ml + bFGF 3 ng/ml, No suramin, FGF pretreatment 96 hours, drug 96 hours
[4] = no suramin, relative to control
[5] = read-out: IC50, Control (without FGF treatment), Suramin, 15 μM, drug 96 hours with 15 μM suramin
[6] = read-out: IC50, aFGF 0.3 ng/ml + bFGF 1 ng/ml, With suramin, FGF pretreatment 96 hours, drug 96 hours with 15 micromolar suramin
[7] = read-out: IC50, aFGF 1 ng/ml + bFGF 3 ng/ml, With suramin, FGF pretreatment 96 hours, drug 96 hours with 15 micromolar suramin
[8] = Homo sapiens, 96 h, read-out: IC50, Control (drug treatment only, without FGF treatment), No suramin
[9] = Homo sapiens, 96 h, read-out: IC50, aFGF 0.3 ng/ml + bFGF 1 ng/ml, No suramin
[10] = Homo sapiens, 96 h, read-out: IC50, aFGF 1 ng/ml + bFGF 3 ng/ml, No suramin
[11] = read-out: IC50, Control (without FGF treatment), Suramin, 15 μM
[12] = read-out: IC50, aFGF 0.3 ng/ml + bFGF 1 ng/ml, With suramin
[13] = read-out: IC50, aFGF 1 ng/ml + bFGF 3 ng/ml, With suramin
[14] = read-out: IC50, Control (drug treatment only, without FGF treatment), No suramin, drug 96 hours
[15] = read-out: IC50, aFGF 0.3 ng/ml + bFGF 1 ng/ml, No suramin, FGF pretreatment 96 hours, drug 96 hours
[16] = read-out: IC50, aFGF 1 ng/ml + bFGF 3 ng/ml, No suramin, FGF pretreatment 96 hours, drug 96 hours

| Compound | IC50 [1] | IC50 [2] | IC50 [3] | Resistance, Folds, aFGF 0.3 ng/ml + bFGF 1 ng/ml [4] | Resistance, Folds, aFGF 1 ng/ml + bFGF 3 ng/ml [4] | IC50 [5] | IC50 [6] | IC50 [7] | Resistance, Folds, aFGF 0.3 ng/ml + bFGF 1 ng/ml | Resistance, Folds, aFGF 1 ng/ml + bFGF 3 ng/ml | IC50 [8] | IC50 [9] | IC50 [10] | IC50 [11] | IC50 [12] | IC50 [13] | IC50 [14] | IC50 [15] | IC50 [16] |
| --- | --- | --- | --- | --- | --- | --- | --- | --- | --- | --- | --- | --- | --- | --- | --- | --- | --- | --- | --- |
| COc1cc([C@@H]2c3cc4c(cc3[C@@H](O[C@@H]3O[C@@H]5CO[C@@H](C)O[C@H]5[C@H](O)[C@H]3O)[C@H]3COC(=O)[C@H]23)OCO4)cc(OC)c1O [Etoposide] | 1.84 µM | 2.34 µM | 3.4 µM | 1.27 Folds | 1.85 Folds | 1.75 µM | 1.6 µM | 1.61 µM |  |  |  |  |  |  |  |  |  |  |  |
| Nc1ccn([C@@H]2O[C@H](CO)[C@@H](O)C2(F)F)c(=O)n1 [Gemcitabine] | 0.00684 µM | 0.00961 µM | 0.0131 µM | 1.41 Folds | 1.91 Folds | 0.00695 µM | 0.00612 µM | 0.00599 µM |  |  |  |  |  |  |  |  |  |  |  |
| CC(=O)[C@]1(O)Cc2c(O)c3c(c(O)c2[C@@H](O[C@H]2C[C@H](N)[C@H](O)[C@H](C)O2)C1)C(=O)c1ccccc1C3=O [Idarubicin] | 0.00445 µM | 0.0119 µM | 0.0312 µM | 2.67 Folds | 7.01 Folds | 0.00505 µM |  | 0.0043 µM |  |  |  |  |  |  |  |  |  |  |  |
| O=P1(NCCCl)OCCCN1CCCl (stereo not shown) [Ifosfamide] | 2.66 µM | 5.01 µM | 8.12 µM | 1.88 Folds | 3.05 Folds | 2.23 µM | 2.22 µM | 2.55 µM |  |  |  |  |  |  |  |  |  |  |  |
| N[C@@H](Cc1ccc(N(CCCl)CCCl)cc1)C(=O)O [Melphalan] | 4.19 µM | 12.8 µM | 24.6 µM | 3.07 Folds | 5.87 Folds | 4.02 µM | 4.48 µM | 3.97 µM |  |  |  |  |  |  |  |  |  |  |  |
| O=C1NC(=S)NC(=O)C1C(=O)Nc1ccccc1 [Merbarone] | 23 µM | 46.7 µM | 80.8 µM | 1.67 Folds | 2.89 Folds | 28.6 µM | 24.9 µM | 29.4 µM |  |  |  |  |  |  |  |  |  |  |  |
| CN(Cc1cnc2nc(N)nc(N)c2n1)c1ccc(C(=O)N[C@@H](CCC(=O)O)C(=O)O)cc1 [Methotrexate] | 32.1 µM | 60.6 µM | 80.5 µM | 1.89 Folds | 2.51 Folds | 28.8 µM | 30.6 µM | 33.7 µM |  |  |  |  |  |  |  |  |  |  |  |
| CO[C@@]12[C@H](COC(N)=O)C3=C(C(=O)C(C)=C(N)C3=O)N1C[C@@H]1N[C@@H]12 [Mitomycin C] | 1.61 µM | 3.06 µM | 4.7 µM |  |  | 1.53 µM | 1.69 µM | 1.6 µM |  |  |  |  |  |  |  |  |  |  |  |
| O=C1c2c(O)ccc(O)c2C(=O)c2c(NCCNCCO)ccc(NCCNCCO)c21 [Mitoxantrone] | 0.18 µM | 0.33 µM | 0.53 µM | 1.83 Folds | 2.94 Folds | 0.16 µM |  |  |  |  |  |  |  |  |  |  |  |  |  |
| O=C(O)CC(NC(=O)CP(=O)(O)O)C(=O)O [PALA, N-Phosphoracetyl-L-Asparate] |  |  |  |  |  |  |  |  | 1.06 Folds | 1.21 Folds | 241 µM | 255 µM | 292 µM | 249 µM | 236 µM | 201 µM |  |  |  |
| OC[C@H]1O[C@@H](n2cnc3c2NC=NC[C@H]3O)C[C@@H]1O [Pentostatin] |  |  |  |  |  |  |  |  |  |  | 336 µM |  |  |  |  |  |  |  |  |
| O=C(CCBr)N1CCN(C(=O)CCBr)CC1 [Pipobroman] | 136 µM | 194 µM | 184 µM | 1.42 Folds | 1.35 Folds | 94 µM | 125 µM | 109 µM |  |  |  |  |  |  |  |  |  |  |  |
| NCCCNc1ccc2c3c(nn2CCNCCO)-c2c(O)ccc(O)c2C(=O)c13 [Piroxantrone Hydrochloride] | 0.34 µM | 0.81 µM | 1.28 µM | 2.38 Folds | 3.77 Folds | 0.32 µM | 0.33 µM | 0.28 µM |  |  |  |  |  |  |  |  |  |  |  |
| NC(=O)c1[nH]nc([C@@H]2O[C@H](CO)[C@@H](O)[C@H]2O)c1O [Pyrazofurin] | 3.38 µM | 4.07 µM | 11.1 µM | 1.20 Folds | 3.27 Folds | 3.83 µM | 3.65 µM | 3.8 µM |  |  |  |  |  |  |  |  |  |  |  |
| O=C1NC2(CCCCC2)C(=O)N1CCN(CCCl)CCCl [Spiromustine] |  |  |  |  |  |  |  |  | 2.15 Folds | 3.46 Folds | 25.3 µM | 54.5 µM | 87.6 µM | 24.4 µM | 25.4 µM | 26.7 µM |  |  |  |
| CC(=O)O[C@@]12CO[C@@H]1C[C@H](O)[C@@]1(C)C(=O)[C@H](O)C3=C(C)[C@@H](OC(=O)[C@H](O)[C@@H](NC(=O)OC(C)(C)C)c4ccccc4)C[C@@](O)([C@@H](OC(=O)c4ccccc4)[C@H]21)C3(C)C [Taxotere] | 0.00229 µM |  |  |  |  | 0.00202 µM |  |  |  |  |  |  |  |  |  |  |  |  |  |
| COc1cc([C@@H]2c3cc4c(cc3[C@@H](O[C@@H]3O[C@@H]5CO[C@@H](c6cccs6)O[C@H]5[C@H](O)[C@H]3O)[C@H]3COC(=O)[C@H]23)OCO4)cc(OC)c1O [Teniposide] | 0.4 µM | 1.14 µM | 1.98 µM | 2.85 Folds | 4.95 Folds | 0.42 µM | 0.39 µM | 0.36 µM |  |  |  |  |  |  |  |  |  |  |  |
| S=P(N1CC1)(N1CC1)N1CC1 [Thiotepa] |  |  |  |  |  |  |  |  | 4.96 Folds | 8.61 Folds | 3.85 µM | 19.1 µM | 33.2 µM | 4.07 µM | 4.09 µM | 4.17 µM |  |  |  |
| NC(=O)c1csc([C@@H]2O[C@H](CO)[C@@H](O)[C@H]2O)n1 [Tiazofurin] | 7.5 µM | 14.6 µM | 19.2 µM | 1.94 Folds | 2.57 Folds | 7.9 µM | 7.25 µM | 6.15 µM |  |  |  |  |  |  |  |  |  |  |  |
| CC[C@@]1(O)C(=O)OCc2c1cc1n(c2=O)Cc2cc3c(CN(C)C)c(O)ccc3nc2-1 [Topotecan] | 0.0222 µM | 0.0311 µM | 0.0539 µM | 1.40 Folds | 2.43 Folds | 0.0217 µM | 0.0208 µM | 0.021 µM |  |  |  |  |  |  |  |  |  |  |  |
| COc1cc(NCc2ccc3nc(N)nc(N)c3c2C)cc(OC)c1OC [Trimetrexate] | 0.0336 µM | 0.054 µM | 0.0959 µM | 1.61 Folds | 2.85 Folds | 0.0331 µM | 0.0306 µM | 0.0289 µM |  |  |  |  |  |  |  |  |  |  |  |
| Oc1ncc(N(CCCl)CCCl)c(O)n1 [Uracil Mustard] |  |  |  |  |  |  |  |  | 1.41 Folds | 2.24 Folds | 30 µM | 42.4 µM | 67.1 µM | 38.2 µM | 37.6 µM | 34.6 µM |  |  |  |
| CC[C@]1(O)C[C@H]2CN(CCc3c([nH]c4ccccc34)[C@@](C(=O)OC)(c3cc4c(cc3OC)N(C=O)[C@H]3[C@@](O)(C(=O)OC)[C@H](OC(C)=O)[C@]5(CC)C=CCN6CC[C@]43[C@@H]65)C2)C1 [Vincristine] | 0.00658 µM |  |  | 4.00 Folds | 6.77 Folds | 0.00682 µM |  |  |  |  |  |  |  |  |  |  |  |  |  |
| CC[C@]1(O)C[C@@H]2CN(CCc3c([nH]c4ccccc34)[C@@](C(=O)OC)(c3cc4c(cc3OC)N(C)[C@H]3[C@@](O)(C(N)=O)[C@H](O)[C@]5(CC)C=CCN6CC[C@]43[C@@H]65)C2)C1 [Vindesine] | 0.00039 µM | 0.00053 µM | 0.00082 µM |  |  | 0.00035 µM | 0.00037 µM | 0.00043 µM |  |  |  |  |  |  |  |  |  |  |  |
| CCC1=C[C@@H]2CN(C1)Cc1c([nH]c3ccccc13)[C@@](C(=O)OC)(c1cc3c(cc1OC)N(C)[C@H]1[C@@](O)(C(=O)OC)[C@H](OC(C)=O)[C@]4(CC)C=CCN5CC[C@]31[C@@H]54)C2 [Vinorelbin] |  |  |  | 1.32 Folds | 2.26 Folds | 0.00329 µM | 0.0036 µM | 0.00384 µM |  |  |  |  |  |  |  |  | 0.00399 µM | 0.00525 µM | 0.00901 µM |
| Dihydrolenperone |  |  |  | 1.81 Folds | 3.37 Folds | 28.1 µM | 26.1 µM | 23.9 µM |  |  |  |  |  |  |  |  | 24.6 µM | 44.5 µM | 82.9 µM |

— US20040010001A1, “Methods and compositions for modulating cell proliferation and cell death” (priority 1999, published 2004)
